Source: patent US10131652B2, “Pyrimidinyloxy benzene derivatives as herbicides” (E. I. DU PONT DE NEMOURS AND COMPANY, priority 2014, dated 2018)

How the values were obtained:
Type in all cases: in vivo
[1] = tested on: pigweed (Amaranthus retroflexus); assay: Test B pre-/postemergence plant response; conditions: for Pigweed plant response rating: 0 to 100 scale (0 no effect, 100 complete control)
Outline: (§1)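 Scoring used a 0–100 scale (100 = complete control) by visual comparison with untreated plants after approximately 10 days in the greenhouse. Compounds, in surfactant-containing non-phytotoxic solvent, were sprayed onto soil at planting or onto 2–10 cm seedlings.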

[2] = tested on: morningglory (Ipomoea spp.); assay: Test B pre-/postemergence plant response; conditions: for Morningglory plant response rating: 0 to 100 scale (0 no effect, 100 complete control)
Outline: as §1

corn (Zea mays) = assay: Test B pre-/postemergence plant response; conditions: for Corn plant response rating: 0 to 100 scale (0 no effect, 100 complete control)
Outline: as §1

[3] = tested on: barnyardgrass (Echinochloa crus-galli); assay: Test B pre-/postemergence plant response; conditions: for Barnyardgrass plant response rating: 0 to 100 scale (0 no effect, 100 complete control)
Outline: as §1

[4] = tested on: velvetleaf (Abutilon theophrasti); assay: Test B pre-/postemergence plant response; conditions: for Velvetleaf plant response rating: 0 to 100 scale (0 no effect, 100 complete control)
Outline: as §1

[5] = tested on: wheat (Triticum aestivum); assay: Test B pre-/postemergence plant response; conditions: for Wheat plant response rating: 0 to 100 scale (0 no effect, 100 complete control)
Outline: as §1

[6] = tested on: large (Lg) crabgrass (Digitaria sanguinalis); assay: Test B pre-/postemergence plant response; conditions: for Crabgrass, Large plant response rating: 0 to 100 scale (0 no effect, 100 complete control)
Outline: as §1

[7] = tested on: giant foxtail (Setaria faberii); assay: Test B pre-/postemergence plant response; conditions: for Foxtail, Giant plant response rating: 0 to 100 scale (0 no effect, 100 complete control)
Outline: as §1

rice (Oryza sativa) = assay: Test C flooded paddy test plant response; conditions: Flood, 250 g ai/ha; scale of 0 to 100 where 0 is no effect and 100 is complete control; 13 to 15 days
Outline: (§2)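 Scored visually on a 0–100 scale (100 = complete control) against untreated plants 13 to 15 days after treatment in the greenhouse. Compounds went into paddy water of pots flooded to 3 cm, holding 2-leaf-stage plants.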

[8] = tested on: barnyardgrass (Echinochloa crus-galli); assay: Test C flooded paddy test plant response; conditions: Flood, 250 g ai/ha; scale of 0 to 100 where 0 is no effect and 100 is complete control; 13 to 15 days
Outline: as §2

[9] = tested on: small-flower umbrella sedge (Cyperus difformis); assay: Test C flooded paddy test plant response; conditions: Flood, 250 g ai/ha; scale of 0 to 100 where 0 is no effect and 100 is complete control; 13 to 15 days
Outline: as §2

[10] = tested on: ducksalad (Heteranthera limosa); assay: Test C flooded paddy test plant response; conditions: Flood, 250 g ai/ha; scale of 0 to 100 where 0 is no effect and 100 is complete control; 13 to 15 days
Outline: as §2

[11] = 125 g ai/ha, postemergence, 0 to 100 scale, 0 no effect, 100 complete control
[12] = 500 g ai/ha, postemergence, 0 to 100 scale, 0 no effect, 100 complete control
[13] = Preemergence, 500 g ai/ha, 0 to 100 scale where 0 is no effect and 100 is complete control

Compound | Plant response rating, Pigweed [1, 11] | Plant response rating, Pigweed [1, 12] | Pigweed plant response rating ([1]; Preemergence, 125 g ai/ha) | Plant response rating, Pigweed [1, 13] | Plant response rating, Morningglory [2, 11] | Plant response rating, Morningglory [2, 12] | Morningglory plant response rating ([2]; Preemergence, 125 g ai/ha) | Plant response rating, Morningglory [2, 13] | Plant response rating, Corn (corn (Zea mays); [11]) | Plant response rating, Corn (corn (Zea mays); [12]) | Corn plant response rating (corn (Zea mays); Preemergence, 125 g ai/ha) | Plant response rating, Corn (corn (Zea mays); [13]) | Plant response rating, Barnyardgrass [3, 11] | Plant response rating, Barnyardgrass [3, 12] | Barnyardgrass plant response rating ([3]; Preemergence, 125 g ai/ha) | Plant response rating, Barnyardgrass [3, 13] | Plant response rating, Velvetleaf [4, 11] | Plant response rating, Velvetleaf [4, 12] | Velvetleaf plant response rating ([4]; Preemergence, 125 g ai/ha) | Plant response rating, Velvetleaf [4, 13] | other results
Clc1ccc(-c2ccc(Br)cc2Oc2ncc(Cl)cn2)nc1 [Compound 203] | 0 | 0 | 0 | 0 | 0 | 0 | 0 | 0 | 0 | 0 | 0 | 0 | 0 | 0 | 0 | 0 | 0 | 0 | 0 | 0 | Plant response rating, Wheat [5, 11]: 0; Plant response rating, Wheat [5, 12]: 0; Wheat plant response rating ([5]; Preemergence, 125 g ai/ha): 0; Plant response rating, Wheat [5, 13]: 0; Plant response rating, Crabgrass, Large [6, 11]: 0; Plant response rating, Crabgrass, Large [6, 12]: 0; Crabgrass, Large plant response rating ([6]; Preemergence, 125 g ai/ha): 0; Plant response rating, Crabgrass, Large [6, 13]: 0; Plant response rating, Foxtail, Giant [7, 11]: 0; Plant response rating, Foxtail, Giant [7, 12]: 0; Foxtail, Giant plant response rating ([7]; Preemergence, 125 g ai/ha): 0; Plant response rating, Foxtail, Giant [7, 13]: 0; Rice plant response rating (rice (Oryza sativa)): 0; Barnyardgrass plant response rating [8]: 0; Sedge, Umbrella plant response rating [9]: 0; Ducksalad plant response rating [10]: 0
N#Cc1cccc(Oc2ncc(Br)cn2)c1-c1ccc(Cl)cn1 [Compound 204] | 50 | 90 | 100 | 100 | 0 | 10 | 0 | 10 | 0 | 0 | 0 | 0 | 0 | 10 | 0 | 30 | 0 | 10 | 0 | 60 | Plant response rating, Wheat [5, 11]: 0; Plant response rating, Wheat [5, 12]: 0; Wheat plant response rating ([5]; Preemergence, 125 g ai/ha): 0; Plant response rating, Wheat [5, 13]: 0; Plant response rating, Crabgrass, Large [6, 11]: 10; Plant response rating, Crabgrass, Large [6, 12]: 40; Crabgrass, Large plant response rating ([6]; Preemergence, 125 g ai/ha): 90; Plant response rating, Crabgrass, Large [6, 13]: 100; Plant response rating, Foxtail, Giant [7, 11]: 0; Plant response rating, Foxtail, Giant [7, 12]: 30; Foxtail, Giant plant response rating ([7]; Preemergence, 125 g ai/ha): 60; Plant response rating, Foxtail, Giant [7, 13]: 100; Rice plant response rating (rice (Oryza sativa)): 0; Barnyardgrass plant response rating [8]: 0; Sedge, Umbrella plant response rating [9]: 0; Ducksalad plant response rating [10]: 0
Clc1ccc(-c2c(I)cccc2Oc2ncc(Cl)cn2)nc1 [Compound 205] | 60 | 90 | 10 | 90 | 0 | 10 | 0 | 0 | 0 | 10 | 0 | 0 | 0 | 10 | 0 | 10 | 0 | 10 | 0 | 0 | Plant response rating, Wheat [5, 11]: 0; Plant response rating, Wheat [5, 12]: 0; Wheat plant response rating ([5]; Preemergence, 125 g ai/ha): 0; Plant response rating, Wheat [5, 13]: 0; Plant response rating, Crabgrass, Large [6, 11]: 10; Plant response rating, Crabgrass, Large [6, 12]: 20; Crabgrass, Large plant response rating ([6]; Preemergence, 125 g ai/ha): 30; Plant response rating, Crabgrass, Large [6, 13]: 70; Plant response rating, Foxtail, Giant [7, 11]: 0; Plant response rating, Foxtail, Giant [7, 12]: 20; Foxtail, Giant plant response rating ([7]; Preemergence, 125 g ai/ha): 20; Plant response rating, Foxtail, Giant [7, 13]: 70; Rice plant response rating (rice (Oryza sativa)): 0; Barnyardgrass plant response rating [8]: 0; Sedge, Umbrella plant response rating [9]: 0; Ducksalad plant response rating [10]: 0
Fc1cnc(Oc2ccccc2-c2cc(C(F)(F)F)on2)nc1 [Compound 206] | 40 | 70 | 50 | 80 | 20 | 30 | 0 | 0 | 0 | 0 | 0 | 0 | 0 | 10 | 0 | 30 | 30 | 60 | 30 | 40 | Plant response rating, Wheat [5, 11]: 0; Plant response rating, Wheat [5, 12]: 0; Wheat plant response rating ([5]; Preemergence, 125 g ai/ha): 0; Plant response rating, Wheat [5, 13]: 0; Plant response rating, Crabgrass, Large [6, 11]: 10; Plant response rating, Crabgrass, Large [6, 12]: 20; Crabgrass, Large plant response rating ([6]; Preemergence, 125 g ai/ha): 10; Plant response rating, Crabgrass, Large [6, 13]: 60; Plant response rating, Foxtail, Giant [7, 11]: 0; Plant response rating, Foxtail, Giant [7, 12]: 20; Foxtail, Giant plant response rating ([7]; Preemergence, 125 g ai/ha): 10; Plant response rating, Foxtail, Giant [7, 13]: 60; Rice plant response rating (rice (Oryza sativa)): 0; Barnyardgrass plant response rating [8]: 0; Sedge, Umbrella plant response rating [9]: 70; Ducksalad plant response rating [10]: 70
N#Cc1cccc(Oc2ncc(F)cn2)c1-c1ccc(Cl)cn1 [Compound 207] | 70 | 100 | 90 | 100 | 10 | 30 | 0 | 30 | 0 | 0 | 0 | 0 | 0 | 70 | 10 | 90 | 10 | 60 | 0 | 30 | Plant response rating, Wheat [5, 11]: 0; Plant response rating, Wheat [5, 12]: 0; Wheat plant response rating ([5]; Preemergence, 125 g ai/ha): 0; Plant response rating, Wheat [5, 13]: 0; Plant response rating, Crabgrass, Large [6, 11]: 0; Plant response rating, Crabgrass, Large [6, 12]: 30; Crabgrass, Large plant response rating ([6]; Preemergence, 125 g ai/ha): 100; Plant response rating, Crabgrass, Large [6, 13]: 100; Plant response rating, Foxtail, Giant [7, 11]: 0; Plant response rating, Foxtail, Giant [7, 12]: 30; Foxtail, Giant plant response rating ([7]; Preemergence, 125 g ai/ha): 70; Plant response rating, Foxtail, Giant [7, 13]: 100; Rice plant response rating (rice (Oryza sativa)): 0; Barnyardgrass plant response rating [8]: 0; Sedge, Umbrella plant response rating [9]: 30; Ducksalad plant response rating [10]: 30
